# Values of other authors in US6107059A, “Peptide library and screening method” (Affymax Technologies N.V., priority 1992, dated 2000).
# Target: streptavidin (Streptomyces avidinii, UniProt P22629)
# Conditions: comparison in words, no number given
# Chain of streptavidin (P22629 25-183): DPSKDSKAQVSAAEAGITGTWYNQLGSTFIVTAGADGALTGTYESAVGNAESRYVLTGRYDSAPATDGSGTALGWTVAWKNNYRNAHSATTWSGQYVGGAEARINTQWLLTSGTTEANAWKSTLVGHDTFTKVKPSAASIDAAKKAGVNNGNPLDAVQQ
smiles,measurement,value
N=C1N[C@H]2[C@H](CS[C@H]2CCCCC(=O)O)N1 [iminobiotin],"Kd for streptavidin, compared with biotin",much lower Kd
